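How tested: cells in 96-well plates exposed to compound for 48 hours at five concentrations. At the GI50, growth is halved. TGI denotes the concentration required for complete inhibition of growth.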
How the values were obtained:
Experiment in all cases: NCI anticancer screen, dose series, 48 h
[1] = test system: SK-OV-3 ovarian
[2] = test system: NCI/ADR-RES ovarian
[3] = test system: NCI-H460 lung
[4] = test system: SF-295 CNS
[5] = test system: HOP-92 NSCLC
[6] = test system: MALME-3M melanoma
[7] = test system: SN12C renal
[8] = test system: RXF 393 renal
[9] = test system: HCT-116 colon
[10] = test system: HS 578T breast
[11] = test system: PC-3 prostate
[12] = test system: UACC-257 melanoma
[13] = test system: MDA-MB-435
[14] = test system: COLO 205 colon
[15] = test system: RPMI-8226 leukemia
[16] = test system: SK-MEL-28 melanoma
[17] = test system: A549 NSCLC
[18] = test system: HOP-62 NSCLC
[19] = test system: U251 CNS
[20] = test system: KM12 colon
[21] = test system: CAKI-1 renal
[22] = test system: MDA-MB-231 breast
[23] = test system: K-562 leukemia
[24] = test system: OVCAR-4 ovarian
[25] = test system: HT29 colon
[26] = test system: UO-31 renal
[27] = test system: SNB-75 CNS
[28] = test system: OVCAR-5 ovarian
[29] = test system: IGROV1 ovarian
[30] = test system: T-47D breast
[31] = test system: SK-MEL-2 melanoma
[32] = test system: NCI-H226 lung
[33] = test system: 786-0 renal
[34] = test system: SK-MEL-5 melanoma
[35] = test system: SF-539 CNS
[36] = test system: SR leukemia
[37] = test system: NCI-H23 lung
[38] = test system: HCC-2998 colon
[39] = test system: SW-620 colon
[40] = test system: HL-60(TB) leukemia
[41] = test system: DU-145 prostate
[42] = test system: TK-10 renal
[43] = test system: A498 renal
[44] = test system: MOLT-4 leukemia
[45] = test system: SNB-19 CNS
[46] = test system: NCI-H522 lung
[47] = test system: LOX IMVI melanoma
[48] = test system: OVCAR-8 ovarian
[49] = test system: MCF7 breast
[50] = test system: SF-268 CNS
[51] = test system: UACC-62 melanoma
[52] = test system: HCT-15 colon
[53] = test system: ACHN renal
[54] = test system: CCRF-CEM leukemia
[55] = test system: BT-549 breast
[56] = test system: OVCAR-3 ovarian
[57] = test system: M14 melanoma
[58] = test system: EKVX NSCLC

## COc1cccc(-c2nn(C)c3sc(C(=O)NCCN4CCN(c5ccccc5F)CC4)cc23)c1
[1]
  GI50: > 100 µM
  TGI: > 100 µM
[2]
  GI50: 13.8 µM
  TGI: > 100 µM
[3]
  GI50: 14.8 µM
  TGI: > 100 µM
[4]
  GI50: 4.85 µM
  TGI: 29 µM
[5]
  GI50: 13.4 µM
  TGI: > 100 µM
[6]
  GI50: 9.49 µM
  TGI: 53.5 µM
[7]
  GI50: 79.5 µM
  TGI: > 100 µM
[8]
  GI50: 3.17 µM
  TGI: > 100 µM
[9]
  GI50: 9.91 µM
  TGI: > 100 µM
[10]
  GI50: 26.2 µM
  TGI: > 100 µM
[11]
  GI50: 11.5 µM
  TGI: > 100 µM
[12]
  GI50: 28.4 µM
  TGI: > 100 µM
[13]
  GI50: 10.5 µM
  TGI: > 100 µM
[14]
  GI50: 20.6 µM
  TGI: > 100 µM
[15]
  GI50: 6.51 µM
  TGI: > 100 µM
[16]
  GI50: 11.1 µM
  TGI: 33.4 µM
[17]
  GI50: 15.3 µM
  TGI: > 100 µM
[18]
  GI50: 25.8 µM
  TGI: > 100 µM
[19]
  GI50: 7.14 µM
  TGI: 59.5 µM
[20]
  GI50: 10.1 µM
  TGI: > 100 µM
[21]
  GI50: 9.02 µM
  TGI: 91.5 µM
[22]
  GI50: 3.87 µM
  TGI: 62.4 µM
[23]
  GI50: 3.78 µM
  TGI: > 100 µM
[24]
  GI50: 19.1 µM
  TGI: > 100 µM
[25]
  GI50: 4.66 µM
  TGI: 51.3 µM
[26]
  GI50: 4.56 µM
  TGI: 47.8 µM
[27]
  GI50: 3.59 µM
  TGI: 95.3 µM
[28]
  GI50: 6.55 µM
  TGI: 96.6 µM
[29]
  GI50: > 100 µM
  TGI: > 100 µM
[30]
  GI50: 4.32 µM
  TGI: > 100 µM
[31]
  GI50: 33.9 µM
  TGI: > 100 µM
[32]
  GI50: 31.3 µM
  TGI: > 100 µM
[33]
  GI50: 5.24 µM
  TGI: 25.1 µM
[34]
  GI50: 6.38 µM
  TGI: 26.2 µM
[35]
  GI50: 9.45 µM
  TGI: > 100 µM
[36]
  GI50: 5.43 µM
  TGI: > 100 µM
[37]
  GI50: 34.5 µM
  TGI: > 100 µM
[38]
  GI50: 7.06 µM
  TGI: > 100 µM
[39]
  GI50: 33.7 µM
  TGI: > 100 µM
[40]
  GI50: 33.1 µM
  TGI: > 100 µM
[41]
  GI50: 34.2 µM
  TGI: > 100 µM
[42]
  GI50: 65.4 µM
  TGI: > 100 µM
[43]
  GI50: 1.29 µM
  TGI: 27.3 µM
[44]
  GI50: 5.15 µM
  TGI: > 100 µM
[45]
  GI50: 21 µM
  TGI: > 100 µM
[46]
  GI50: 18.8 µM
  TGI: > 100 µM
[47]
  GI50: 13.4 µM
  TGI: > 100 µM
[48]
  GI50: 7.85 µM
  TGI: > 100 µM
[49]
  GI50: 6.54 µM
  TGI: > 100 µM
[50]
  GI50: 46.9 µM
  TGI: > 100 µM
[51]
  GI50: 10.5 µM
  TGI: 84.5 µM
[52]
  GI50: 3.18 µM
  TGI: 15.5 µM
[53]
  GI50: 19.2 µM
  TGI: > 100 µM
[54]
  GI50: 8.54 µM
  TGI: > 100 µM
[55]
  GI50: > 100 µM
  TGI: > 100 µM
[56]
  GI50: 20.6 µM
  TGI: > 100 µM

## O=c1c(-c2nc3ccccc3[nH]2)cc2ccccc2n1Cc1cn(Cc2ccc(F)cc2)nn1
[1]
  GI50: 0.328 µM
  TGI: 4.63 µM
[2]
  GI50: 1.28 µM
  TGI: 19.2 µM
[3]
  GI50: 0.0435 µM
  TGI: > 100 µM
[4]
  GI50: 0.253 µM
  TGI: 11 µM
[5]
  GI50: 0.364 µM
  TGI: 18.2 µM
[6]
  GI50: 0.213 µM
  TGI: 66.4 µM
[7]
  GI50: 0.203 µM
  TGI: > 100 µM
[8]
  GI50: 0.125 µM
  TGI: 0.484 µM
[9]
  GI50: 0.0442 µM
  TGI: 5.56 µM
[10]
  GI50: 0.0546 µM
  TGI: 1.18 µM
[11]
  GI50: 0.153 µM
  TGI: > 100 µM
[12]
  GI50: > 100 µM
  TGI: > 100 µM
[15]
  GI50: 0.0427 µM
  TGI: > 100 µM
[17]
  GI50: 0.116 µM
  TGI: > 100 µM
[18]
  GI50: 0.222 µM
  TGI: 9.51 µM
[57]
  GI50: 0.0568 µM
  TGI: 0.39 µM
[19]
  GI50: 0.161 µM
  TGI: 12.4 µM
[20]
  GI50: 0.143 µM
  TGI: > 41.5 µM
[21]
  GI50: 0.246 µM
  TGI: > 100 µM
[22]
  GI50: 0.313 µM
  TGI: 8.41 µM
[23]
  GI50: 0.0609 µM
  TGI: > 100 µM
[24]
  GI50: 1.35 µM
  TGI: > 100 µM
[25]
  GI50: 0.041 µM
  TGI: 96.9 µM
[26]
  GI50: 0.327 µM
  TGI: > 100 µM
[27]
  GI50: < 0.0149 µM
  TGI: 0.113 µM
[28]
  GI50: 0.287 µM
  TGI: 7.84 µM
[29]
  GI50: 0.221 µM
  TGI: > 100 µM
[30]
  GI50: 0.206 µM
  TGI: > 100 µM
[31]
  GI50: 0.348 µM
  TGI: 10.2 µM
[32]
  GI50: 0.572 µM
  TGI: > 100 µM
[33]
  GI50: 0.415 µM
  TGI: 11.3 µM
[58]
  GI50: 0.799 µM
  TGI: > 100 µM
[34]
  GI50: 0.164 µM
  TGI: > 85.7 µM
[35]
  GI50: 0.137 µM
  TGI: 0.636 µM
[36]
  GI50: 0.0732 µM
  TGI: > 100 µM
[37]
  GI50: 0.457 µM
  TGI: 19 µM
[38]
  GI50: 0.203 µM
  TGI: 3.31 µM
[39]
  GI50: 0.0672 µM
  TGI: > 100 µM
[41]
  GI50: 0.143 µM
  TGI: 1.05 µM
[42]
  GI50: 0.793 µM
  TGI: 15.8 µM
[43]
  GI50: 0.127 µM
  TGI: 0.716 µM
[44]
  GI50: 0.233 µM
  TGI: > 100 µM
[45]
  GI50: 0.305 µM
  TGI: 25.2 µM
[46]
  GI50: 0.0957 µM
[47]
  GI50: 0.084 µM
  TGI: > 100 µM
[48]
  GI50: 0.139 µM
  TGI: > 100 µM
[49]
  GI50: 0.0329 µM
  TGI: > 55.1 µM
[50]
  GI50: 0.259 µM
  TGI: 57.6 µM
[51]
  GI50: 0.437 µM
  TGI: 50.7 µM
[52]
  GI50: 0.399 µM
  TGI: > 50.9 µM
[53]
  GI50: 0.492 µM
  TGI: > 40.5 µM
[54]
  GI50: 0.135 µM
  TGI: > 100 µM
[55]
  GI50: 0.164 µM
  TGI: > 40.5 µM
[56]
  GI50: 0.15 µM
  TGI: 0.911 µM

Reference: PubChem BioAssay (NCI)
